Measurements from EP4039264A1, “ORAL PEPTIDE ANTAGONISTS OF MULTIPLE CHEMOKINE RECEPTORS FOR REVERSING LOSS OF SYNAPSES AND DENDRITIC SPINES” (Creative Bio-Peptides Inc., priority 2021, dated 2022).

Legend:
CXCR4 = CXCR4 (Mus musculus, UniProt P70658); conditions: CXCR4 tropic gp120; cultured mouse hippocampal neurons devoid of immune cells
Method: Aβd/t was isolated from medium of cultured 7PA2 cells, a CHO cell line expressing a form of human APP found in Familial AD. […] Neuronal cultures, fixation, permeabilization, blocking and immunostaining is performed starting with E16.5 mouse hippocampal neurons by common methods in broad use.
Images of fixed neurons immunostained for cofilin, growth cones and nuclei captured across the entire coverslip are exported to ImageJ. Macro functions are applied to set local threshold and shape/size segmentation for both the cofilin and growth cone antibodies. Cofilin stained material that is not within neurites is eliminated. Results are reported as rods/nucleus, number of rods per area, rods as percent of total area, or, if NeuN stained or identified morphologically, rods per neuron.

CCR5 [1] = biological target: T1, CCR5 (Mus musculus, UniProt P51682); test: gp120-induced cofilin-rod formation in cultured hippocampal neurons, CCR5-tropic gp120 (Fig. 2A); format: cell-based; conditions: cultured mouse hippocampal neurons devoid of immune cells
T1 construct: neurons express CCR5 and CXCR4 receptors that control synapse regeneration; endogenous in cells; host or cells: primary E16.5 mouse hippocampal neurons
T1 sequence (P51682 whole entry): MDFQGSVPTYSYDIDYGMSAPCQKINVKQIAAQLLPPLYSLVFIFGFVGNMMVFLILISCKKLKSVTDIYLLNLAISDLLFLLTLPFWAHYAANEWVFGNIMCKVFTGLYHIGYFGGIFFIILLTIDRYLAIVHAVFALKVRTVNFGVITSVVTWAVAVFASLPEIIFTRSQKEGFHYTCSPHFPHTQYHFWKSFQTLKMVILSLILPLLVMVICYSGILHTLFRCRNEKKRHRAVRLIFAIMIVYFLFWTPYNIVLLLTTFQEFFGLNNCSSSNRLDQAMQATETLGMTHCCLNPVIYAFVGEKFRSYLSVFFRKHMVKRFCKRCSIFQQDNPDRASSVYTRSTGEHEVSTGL

CCR5 [2] = conditions: pharmacologic blockade of CCR5 after stroke and traumatic brain injury; cited from earlier work
[3] = HAND phase 2 human trials and brain scans; cited from earlier work

Chain of CXCR4 (P70658 whole entry): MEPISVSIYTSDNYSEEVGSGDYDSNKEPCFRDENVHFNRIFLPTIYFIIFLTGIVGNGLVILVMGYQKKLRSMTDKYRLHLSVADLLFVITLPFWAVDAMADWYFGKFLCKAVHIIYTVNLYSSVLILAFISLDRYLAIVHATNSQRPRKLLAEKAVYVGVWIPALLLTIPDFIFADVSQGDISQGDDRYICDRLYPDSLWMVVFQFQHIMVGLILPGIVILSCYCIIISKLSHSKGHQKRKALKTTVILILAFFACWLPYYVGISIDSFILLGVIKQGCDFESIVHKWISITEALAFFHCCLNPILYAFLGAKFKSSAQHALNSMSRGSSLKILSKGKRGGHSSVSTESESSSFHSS

Molecule: c1cc(CN2CCCNCCNCCCNCC2)ccc1CN1CCCNCCNCCCNCC1 [AMD3100]
- cofilin-rods formed by neurons treated with gp120 (CXCR4): inhibited

Molecule: Cc1nnc(C(C)C)n1[C@@H]1C[C@H]2CC[C@@H](C1)N2CC[C@H](NC(=O)C1CCC(F)(F)CC1)c1ccccc1 [maraviroc]
- cofilin-rods formed by neurons treated with gp120 (CCR5 [1]): inhibited
- dendritic spines and neurite cortical projections (CCR5 [2]): preservation of dendritic spines and new patterns of neurite cortical projections

Molecule: [D-Ala1]-Ser-Thr-Thr-Thr-Asn-Tyr-Thr-NH2 [DAPTA]
- cognitive deficits [3]: able to reverse cognitive deficits
